What was measured:
Assay in all cases: growth inhibition of complemented yeast YUG37::LbCYP51B, absorbance at […] nm
Format in all cases: cell-based, Plenodomus biglobosus (Leptosphaeria biglobosa)
Conditions in all cases: whole-cell growth; SD GAL + RAF with doxycycline (native CYP51 repressed), 30 °C, 6 days; SD of two biological replicates
LbCYP51B [1] = tested on: T1, LbCYP51B
T1 construct: gene CYP51B; protein identical in all 8 isolates; gene 1642 bp with one 58 bp intron

LbCYP51B [2] = tested on: T1, LbCYP51B; remark: listed apart in the source
LbCYP51B [3] = tested on: T1, LbCYP51B; remark: listed apart in the source

Structure (SMILES): C[Si](Cn1cncn1)(c1ccc(F)cc1)c1ccc(F)cc1 [flusilazole]
- Flusilazole (LbCYP51B [1]): 0.032 (0.0056) µg ml^−1

Structure (SMILES): OC(Cc1ccccc1Cl)(Cn1cncn1)C1(Cl)CC1 (stereo not drawn) [prothioconazole-desthio]
- Prothioconazole-desthio (LbCYP51B [2]): 0.0004 (0.0002) µg ml^−1

Structure (SMILES): CC(C)(C)C(O)(CCc1ccc(Cl)cc1)Cn1cncn1 (stereo not drawn) [tebuconazole]
- Tebuconazole (LbCYP51B [3]): 0.0062 (0.0005) µg ml^−1
